Counter-ions that a name gives are not always drawn. Like-named read-outs stand apart in the source and are kept apart here.

Broadly, the Ki is a dissociation constant, usually derived from enzyme kinetics or from competition with a known ligand.

Experiment [1] deals with T1, human serotonin transporter (hSERT) (Homo sapiens, UniProt P31645).
T1 construct: expressed in transfected cells; host or cells: HEK-293
In words: SPA radioligand binding at human serotonin transporter (3H-citalopram). As to the method: The compounds are tested for biological activity by their ability to inhibit binding of selective radioligands at the human serotonin and noradrenaline transporters (SERT and NET, respectively), using scintillation proximity assay (SPA) technology. The SPA binding is performed using cellular membrane preparations prepared from cell lines expressing human cDNA encoding either SERT or NET (hSERT, hNET), using the radioligands 3H-citalopram and 3H-nisoxetine.
Human embryonic kidney cells (HEK-293) expressing each transporter are maintained as a continuous culture, using standard cell culture techniques, in 50 mL of growth medium (see Media and Buffers for composition) in 225 cm^2 flasks, at 37° C. in a humidified atmosphere with 5% CO2 present. Cells are passaged from a 90% confluent monolayer at a ratio of 1:3-1:4. For cell harvesting, the growth medium is removed from the monolayer and the cells are incubated with cell dissociation solution (Sigma) until showing signs of dissociation. The cells are subsequently knocked from the base of the flask and pelleted by centrifugation for storage (frozen at −80° C.) prior to further use.
Cell pellets are thawed on ice and resuspended in 3 mL of membrane preparation buffer (see Media and Buffers for composition) per 1 mL of packed cell volume, using a vortex mixer to disperse the cell pellet. • After incubation on ice for 10 minutes, the suspension is homogenised for four individual 10 second intervals using a hand-held homogeniser. The homogenate is then centrifuged at 1075×g for 20 minutes at 4° C. • The supernatants are then collected and retained. Initial cell & nuclei pellets (P1) are subsequently rehomogenised and centrifuged using the conditions cited above, and the supernatants collected and pooled with those retained from the first spin.
The pooled supernatants are centrifuged at 35000×g for 30 minutes at 4° C., and the supernatants discarded. The pellets (P2) are then resuspended in 1 mL of membrane preparation buffer per 1 mL of the original packed cell volume. Protein concentrations are then measured and the membrane suspension was finally frozen in aliquots of set volume and stored at −80° C. prior to use in assays.
The specific SPA bead type differed for each transporter, wheat germ agglutinin-coated yttrium silicate (YSi WGA) SPA beads are used for hSERT and WGA-coated polyvinyltoluene (PvT WGA) SPA beads for hNET assays. For each batch of membrane used, optimal concentrations of bead and membrane are determined
Tritiated radioligands specific to each transporter (3H-citalopram for hSERT and ^3H-nisoxetine for hNET) are used. The assay free radioligand concentration is expressed as a percentage of the total free radioligand concentration to give an estimate of the radioligand depletion. The radioligand depletion in assays for both transporters is less than 30% to ensure that there was sufficient radioligand available for binding. The ligand depletion value is also used for selecting the optimal assay conditions when using new batches of membranes.
The affinity of the specific radioligand for the respective transporter is determined for each membrane batch at the selected protein and bead concentrations. This is achieved by the determination of the KD, the concentration of free radioligand at which 50% of the transporter binding sites were occupied. The mean KD for a radioligand at a batch of membranes is determined from data from a minimum of three separate assays. The mean KD is subsequently used for all assays using the membrane batch profiled to enable determination of Ki values of compounds studied using the method determined by Cheng and Prussoff (Cheng Y C and Prusoff W H. Relationship between the inhibition constant (Ki) and the concentration of inhibitor which causes 50% inhibition of an enzymatic reaction. Biochem Pharmacol 1973; 22:[…].)
The required amount of membrane is thawed on ice and added to a predetermined volume of bead suspension in assay buffer. […]

Experiment [2] deals with T2, human noradrenaline transporter (hNET) (Homo sapiens, UniProt P23975).
T2 construct: expressed in transfected cells; host or cells: HEK-293
In words: SPA radioligand binding at human noradrenaline transporter (3H-nisoxetine).
Description: The affinity of the specific radioligand for the respective transporter is determined for each membrane batch at the selected protein and bead concentrations. […] The mean KD for a radioligand at a batch of membranes is determined from data from a minimum of three separate assays.
The required amount of membrane is thawed on ice and added to a predetermined volume of bead suspension in assay buffer. The beads are then pre-coupled by incubating the predetermined protein quantity per mg of bead on a shaker at a temperature of 4° C. for 2 hours. Subsequently, the bead/membrane complex is spun down at 865×g for 5 minutes. The resulting pellet is resuspended in assay buffer and this spin/wash step is then repeated. The final pellet is then resuspended in assay buffer at the specific concentration required for the final assay.
An aliquot of [^3H]-radioligand stock is diluted in assay buffer to give a pre-determined final assay concentration less than the equilibrium dissociation constant (KD) value.
All test compounds are prepared at a concentration of 4 mM in 100% dimethyl sulphoxide (DMSO) from dry samples.
The same volume of assay buffer is added to specific wells of the plate to enable subsequent measurement of total radioligand binding. Furthermore, 20 μL a high concentration of compound specific to each transporter assay is subsequently added to predetermined wells to determine non-specific binding (NSB).

Setting [3] is: hSERT membranes from HEK-293 cells, 3H-citalopram, SPA, read-out: SRI Ki.
[4] abbreviates: hNET membranes from HEK-293 cells, 3H-nisoxetine, SPA, read-out: NRI Ki.

T2 sequence (P23975 whole entry): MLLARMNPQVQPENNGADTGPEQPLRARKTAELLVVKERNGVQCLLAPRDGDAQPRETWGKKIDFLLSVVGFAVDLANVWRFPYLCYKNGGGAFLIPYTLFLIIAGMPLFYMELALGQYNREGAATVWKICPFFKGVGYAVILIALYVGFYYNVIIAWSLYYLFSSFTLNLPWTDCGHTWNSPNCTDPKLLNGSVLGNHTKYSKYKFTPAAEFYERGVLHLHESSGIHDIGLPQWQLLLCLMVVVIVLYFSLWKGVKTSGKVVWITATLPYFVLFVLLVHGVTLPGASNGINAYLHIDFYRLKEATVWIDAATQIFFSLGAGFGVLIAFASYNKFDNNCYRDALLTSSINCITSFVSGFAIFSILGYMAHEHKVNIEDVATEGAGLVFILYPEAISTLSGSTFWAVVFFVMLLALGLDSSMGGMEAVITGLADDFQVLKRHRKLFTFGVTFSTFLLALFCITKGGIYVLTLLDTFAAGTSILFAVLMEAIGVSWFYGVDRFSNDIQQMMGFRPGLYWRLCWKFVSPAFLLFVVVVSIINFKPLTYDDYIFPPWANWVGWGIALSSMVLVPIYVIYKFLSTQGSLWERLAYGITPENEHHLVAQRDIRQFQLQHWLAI
T1 sequence (P31645 whole entry): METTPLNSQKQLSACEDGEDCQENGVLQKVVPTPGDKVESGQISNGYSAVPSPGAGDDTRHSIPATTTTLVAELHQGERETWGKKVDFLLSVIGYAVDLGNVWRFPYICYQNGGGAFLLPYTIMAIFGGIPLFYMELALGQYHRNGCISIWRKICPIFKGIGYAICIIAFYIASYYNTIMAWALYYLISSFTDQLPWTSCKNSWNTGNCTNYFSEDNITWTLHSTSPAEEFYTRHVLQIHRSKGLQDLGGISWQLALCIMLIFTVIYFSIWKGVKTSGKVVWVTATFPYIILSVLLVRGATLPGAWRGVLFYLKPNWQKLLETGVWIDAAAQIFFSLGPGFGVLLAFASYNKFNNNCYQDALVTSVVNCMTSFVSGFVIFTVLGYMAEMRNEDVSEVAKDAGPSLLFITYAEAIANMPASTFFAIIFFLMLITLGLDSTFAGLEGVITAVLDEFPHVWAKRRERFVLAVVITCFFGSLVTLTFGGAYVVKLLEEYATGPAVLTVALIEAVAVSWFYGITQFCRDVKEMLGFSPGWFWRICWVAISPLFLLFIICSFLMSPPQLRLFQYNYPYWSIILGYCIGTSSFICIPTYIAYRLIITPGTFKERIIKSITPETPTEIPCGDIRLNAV

As for `O=C(c1ccccc1C1CCCC1)N(CC1CC1)[C@H]1CCNC1` [Example 19, 2-cyclopentyl-N-(cyclopropylmethyl)-N-[(3S)-pyrrolidin-3-yl]benzamide hydrochloride], the Ki was 500 nM in experiment [1] (setting [3]) and 16 nM in experiment [2] (setting [4]).
For the molecule `O=C(c1ccccc1Oc1ccccc1)N(c1ccccc1)[C@H]1CCNC1` [Example 14, 2-phenoxy-N-phenyl-N-[(3S)-pyrrolidin-3-yl]benzamide hydrochloride], the values for the inhibitory constant (Ki) in experiment [1] and in experiment [2] (setting [4]) were 67 nM and 3 nM, respectively.
`CCCN(C(=O)c1cc(F)ccc1Oc1ccccc1)[C@H]1CCNC1` [Example 7, 5-fluoro-2-phenoxy-N-propyl-N-[(3S)-pyrrolidin-3-yl]benzamide hydrochloride]: the Ki was 2400 nM in experiment [1] (setting [3]) and 9 nM in experiment [2] (setting [4]).
With `CSc1ccccc1C(=O)N(CC1(C)CCC1)[C@H]1CCNC1` [Example 9, N-[(1-methylcyclobutyl)methyl]-2-(methylthio)-N-[(3S)-pyrrolidin-3-yl]benzamide hydrochloride], the Ki in experiment [1] (setting [3]) stood at 20 nM; in experiment [2] it was 6 nM.
On to `CSc1ccccc1C(=O)N(C1CCCCC1)[C@H]1CCNC1` [Example 20, N-cyclohexyl-2-(methylthio)-N-[(3S)-pyrrolidin-3-yl]benzamide hydrochloride], for which the inhibition constant Ki amounted to 17 nM in experiment [1] (setting [3]) and 5 nM in experiment [2] (setting [4]).
Take `O=C(c1ccccc1Oc1ccccc1)N(C1CCCC1)[C@H]1CCNC1` [Example 4, N-Cyclopentyl-2-phenoxy-N-[(3S)-pyrrolidin-3-yl]benzamide hydrochloride]: the Ki in experiment [1] (setting [3]) stood at 70 nM; in experiment [2] (setting [4]), 12 nM.

These data come from patent US20090239928A1, “N-Pyrrolidin-3YL-Amide Derivatives As Serotonin and Noradrenalin Re-Uptake Inhibitors” (priority 2004, published 2009).
